# Activity calls are given as the source filed them. The rule behind the calls is not given here.
# Assays:
# HeLa [1] = assay: Cytotoxicity against human HeLa cells assessed as reduction in cell viability after 24 hrs by MTT assay; format: functional
# HeLa [2] = assay: Cytotoxicity against human HeLa cells assessed as reduction in cell viability by MTT assay; format: functional, cell-based; details: TDE = time-dependent effect
# Calf thymus DNA [3] = assay: Binding affinity to calf thymus DNA assessed as DNA intercalation by viscosity study; format: nucleic-acid assay; details: Bos taurus
# HeLa [4] = assay: Cytotoxicity against human HeLa cells assessed as reduction in cell viability after 48 hrs by MTT assay; format: functional
# HeLa [5] = assay: Cytotoxicity against human HeLa cells assessed as reduction in cell viability after 24 to 48 hrs by MTT assay; format: functional
# Calf thymus DNA [6] = assay: Binding affinity to calf thymus DNA assessed by UV-vis spectroscopy; format: nucleic-acid assay; details: Bos taurus
# Calf thymus DNA [7] = assay: Binding affinity to calf thymus DNA assessed as change in CD spectrum of DNA by CD titration method; format: nucleic-acid assay; details: Bos taurus
# Calf thymus DNA [8] = assay: Binding affinity to calf thymus DNA assessed as hypochromic effect by UV-vis spectroscopy; format: nucleic-acid assay; design: concentration or dose not given beside the values; details: Bos taurus
# HeLa [9] = assay: Cytotoxicity against human HeLa cells assessed as reduction in plasma membrane integrity at 1 to 50 uM by LDH release assay; format: functional, cell-based
# HeLa [10] = assay: Cell cycle arrest in human HeLa cells at 4.4 uM after 24 hrs by flow cytometry; format: functional, cell-based
# HeLa [11] = assay: Cell cycle arrest in human HeLa cells at 8.8 uM after 12 hrs by flow cytometry; format: functional, cell-based
# HeLa [12] = assay: Cell cycle arrest in human HeLa cells assessed as supression of G2/M phase after 12 to 24 hrs by flow cytometry; format: functional, cell-based
# HeLa [13] = assay: Cell cycle arrest in human HeLa cells assessed as accumulation of cells at sub-G1 phase at 8.8 uM after 24 hrs by flow cytometry; format: functional, cell-based
# HeLa [14] = assay: Cell cycle arrest in human HeLa cells assessed as accumulation of G0/G1 phase after 12 to 24 hrs by flow cytometry; format: functional, cell-based
Activity (Calf thymus DNA [3]),Kb (Calf thymus DNA [6]),Activity (Calf thymus DNA [7]),Activity (Calf thymus DNA [8]),Structure (SMILES),GI50 (HeLa [1]),Activity (HeLa [2]),GI50 (HeLa [4]),Activity (HeLa [5]),GI50 (HeLa [5]),Activity (HeLa [9]),Activity (HeLa [10]),Activity (HeLa [11]),Activity (HeLa [12]),Activity (HeLa [13]),Activity (HeLa [14])
inactive,,,,CCOC(=O)c1sc2ccccc2c1/N=N/Nc1ccc(F)c(Cl)c1,31.4 µM,tde,12.9 µM,Dose-dependent effect,,,,,,,
,,,,Cn1nnc2c(C(N)=O)ncn2c1=O [TEMOZOLOMIDE],,,,,> 50 µM,,,,,,
,,,,CCOC(=O)c1sc2ccccc2c1/N=N/Nc1ccc(OC)cc1,49.1 µM,tde,17.4 µM,Dose-dependent effect,,,,,,,
Active,9.84 ×10⁵ /M,inactive,29%,COc1cc(-n2nnc3c(sc4ccccc43)c2=O)cc(OC)c1OC,20.7 µM,tde,9.44 µM,Dose-dependent effect,,,,,,,
inactive,,,,O=c1c2sc3ccccc3c2nnn1-c1ccc(F)c(Cl)c1,6.35 µM,tde,2.45 µM,Dose-dependent effect,,inactive,,,,,
,,,,CN(C)/N=N/c1[nH]cnc1C(N)=O [DACARBAZINE],,,,,> 50 µM,,,,,,
inactive,,,,CCOC(=O)c1sc2ccccc2c1/N=N/Nc1ccc(C)cc1,42.1 µM,tde,18.3 µM,Dose-dependent effect,,,,,,,
Active,9.72 ×10⁴ /M,Active,28%,COc1ccc(-n2nnc3c(sc4ccccc43)c2=O)cc1,4.37 µM,tde,1.24 µM,Dose-dependent effect,,inactive,Active,Active,Dose-dependent effect,Active,Dose-dependent effect
Active,1.23 ×10⁵ /M,Active,25%,Cc1ccc(-n2nnc3c(sc4ccccc43)c2=O)cc1,5.32 µM,tde,1.88 µM,Dose-dependent effect,,inactive,,,,,
Active,6.67 ×10⁵ /M,inactive,85%,O=c1c2sc3ccccc3c2nnn1-c1ccccc1,18.6 µM,tde,9.79 µM,Dose-dependent effect,,,,,,,
Active,4.14 ×10⁶ /M,inactive,11%,CCOC(=O)c1sc2ccccc2c1/N=N/Nc1cc(OC)c(OC)c(OC)c1,22.8 µM,tde,14.4 µM,Dose-dependent effect,,,,,,,
Active,9.87 ×10⁵ /M,Active,12%,CCOC(=O)c1sc2ccccc2c1/N=N/Nc1ccccc1,49.3 µM,tde,26.1 µM,Dose-dependent effect,,,,,,,

# From ChEMBL document CHEMBL3352190, “New benzothieno[3,2-d]-1,2,3-triazines with antiproliferative activity: synthesis, spectroscopic studies, and biological activity” (2014)
